According to US10683289B2, “Apoptosis signal-regulating kinase 1 inhibitors and methods of use thereof” (ENANTA PHARMACEUTICALS, INC., priority 2018, dated 2020):

Molecular target: ASK1 (Homo sapiens (Human), UniProt Q99683)
Test: HTRF KinEASE Assay, inhibition of ASK1
Assay type: biochemical
Conditions: 5 nM ASK1 kinase, 1 uM STK3 peptide substrate, 100 uM ATP, TR-FRET; read-out: IC50 range
Description: HTRF® KinEASE™ Assay ASK1 was purchased from Thermofisher (Catalogue # PV4011), ATP was purchased from Sigma (Catalogue # A7699), HTRF® KinEASE™ Assay System was obtained from Cisbio (Bedford, Mass.). ½ Area plate was purchased from Perkin Elmer (Catalogue # #6005560). HTRF® KinEASE™-STK is a generic method for measuring serine/threonine kinase activities using a time-resolved fluorescence resonance energy transfer (TR-FRET) immunoassay. […] The test compound, 1 uM STK3 peptide substrate, and 5 nM of ASK1 kinase are incubated with kinase reaction buffer containing 50 mM HEPES pH 7.5, 0.01% BRIJ-35, 10 mM MgCl2, and 1 mM EGTA for 30 minutes. 100 uM ATP is added to start kinase reaction and incubated for 3 hours. The STK3-antibody labeled with Eu^3+-Cryptate and 125 nM streptavidin-XL665 are mixed in a single addition with stop reagents provided by the Cisbio kit used to stop the kinase reaction. Fluorescence is detected using an Envision Multilabeled 2014 reader from PerkinElmer. The Fluorescence is measured at 615 nm (Cryptate) and 665 nm (XL665) and a ratio of 665 nm/615 nm is calculated for each well. The resulting TR-FRET is proportional to the phosphorylation level. […] IC50 was determined by XLfit 5.3. By using above method, the inhibition of ASK1 was evaluated for the compounds of Formula (I).

Chain of ASK1 (Q99683 whole entry): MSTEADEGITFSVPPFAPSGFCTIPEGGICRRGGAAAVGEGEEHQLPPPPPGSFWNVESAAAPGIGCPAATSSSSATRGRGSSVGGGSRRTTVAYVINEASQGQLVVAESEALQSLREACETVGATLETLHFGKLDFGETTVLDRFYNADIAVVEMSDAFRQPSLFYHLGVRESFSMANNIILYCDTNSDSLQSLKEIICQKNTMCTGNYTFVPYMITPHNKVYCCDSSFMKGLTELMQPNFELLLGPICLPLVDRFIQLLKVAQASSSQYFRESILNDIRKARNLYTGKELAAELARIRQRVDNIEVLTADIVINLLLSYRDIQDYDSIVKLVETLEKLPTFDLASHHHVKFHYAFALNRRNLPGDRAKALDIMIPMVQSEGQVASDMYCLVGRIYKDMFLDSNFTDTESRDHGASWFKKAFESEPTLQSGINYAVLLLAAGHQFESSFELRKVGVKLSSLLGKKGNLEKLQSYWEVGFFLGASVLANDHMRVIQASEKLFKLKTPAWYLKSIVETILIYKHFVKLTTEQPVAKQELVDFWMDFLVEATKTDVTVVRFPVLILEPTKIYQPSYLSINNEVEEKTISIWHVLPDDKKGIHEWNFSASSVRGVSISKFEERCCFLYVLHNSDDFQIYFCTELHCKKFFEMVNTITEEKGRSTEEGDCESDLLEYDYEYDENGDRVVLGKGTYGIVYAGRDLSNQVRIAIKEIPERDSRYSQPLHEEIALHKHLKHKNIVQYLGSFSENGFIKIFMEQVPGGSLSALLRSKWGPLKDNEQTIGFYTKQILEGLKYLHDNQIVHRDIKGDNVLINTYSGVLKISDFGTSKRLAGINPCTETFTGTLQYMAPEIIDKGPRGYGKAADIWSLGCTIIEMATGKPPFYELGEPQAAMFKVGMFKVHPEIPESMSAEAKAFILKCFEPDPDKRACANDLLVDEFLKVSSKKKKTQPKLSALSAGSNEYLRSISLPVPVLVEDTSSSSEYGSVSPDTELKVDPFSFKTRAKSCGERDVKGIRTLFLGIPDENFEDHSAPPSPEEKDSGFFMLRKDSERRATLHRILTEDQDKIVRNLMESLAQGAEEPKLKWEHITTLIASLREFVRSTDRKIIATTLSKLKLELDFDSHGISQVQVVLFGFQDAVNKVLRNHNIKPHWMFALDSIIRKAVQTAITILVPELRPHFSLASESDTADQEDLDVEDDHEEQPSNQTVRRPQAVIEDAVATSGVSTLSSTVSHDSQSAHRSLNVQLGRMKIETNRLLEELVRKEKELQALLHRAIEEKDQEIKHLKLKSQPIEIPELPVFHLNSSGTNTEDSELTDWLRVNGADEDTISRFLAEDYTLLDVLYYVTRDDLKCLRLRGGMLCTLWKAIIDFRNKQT

| IC50 [µM] | SMILES |
| --- | --- |
| 0.01 to 0.1 | CC(C)N1Cc2cc(N(C)C)c(C(=O)Nc3cccc(-c4nnnn4[C@H](C)CO)n3)cc2S1(=O)=O [Example 14, (R)-5-(dimethylamino)-N-(6-(1-(1-hydroxypropan-2-yl)-1H-tetrazol-5-yl)pyridin-2-yl)-2-isopropyl-2,3-dihydrobenzo[d]isothiazole-6-carboxamide 1,1-dioxide] |
| 0.01 to 0.1 | CC(C)n1cnnc1-c1cccc(NC(=O)c2cc3c(cc2F)CN(C)S3(=O)=O)n1 [Example 15, 5-fluoro-N-(6-(4-isopropyl-4H-1,2,4-triazol-3-yl)pyridin-2-yl)-2-methyl-2,3-dihydrobenzo[d]isothiazole-6-carboxamide 1,1-dioxide] |
| < 0.0015 | COc1cc2c(cc1C(=O)Nc1cccc(-c3nncn3C(C)C)n1)S(=O)(=O)N(C)C2 [Example 16, N-(6-(4-isopropyl-4H-1,2,4-triazol-3-yl)pyridin-2-yl)-5-methoxy-2-methyl-2,3-dihydrobenzo[d]isothiazole-6-carboxamide 1,1-dioxide] |
| 0.01 to 0.1 | C[C@H](CO)n1nnnc1-c1cccc(NC(=O)c2cc3c(cc2F)CN(C)S3(=O)=O)n1 [Example 17, (R)-5-fluoro-N-(6-(1-(1-hydroxypropan-2-yl)-1H-tetrazol-5-yl)pyridin-2-yl)-2-methyl-2,3-dihydrobenzo[d]isothiazole-6-carboxamide 1,1-dioxide] |
| < 0.0015 | COc1cc2c(cc1C(=O)Nc1cccc(-c3nnnn3[C@H](C)CO)n1)S(=O)(=O)N(C)C2 [Example 18, (R)—N-(6-(1-(1-hydroxypropan-2-yl)-1H-tetrazol-5-yl)pyridin-2-yl)-5-methoxy-2-methyl-2,3-dihydrobenzo[d]isothiazole-6-carboxamide 1,1-dioxide] |
| 0.01 to 0.1 | COCCN1Cc2cc(F)c(C(=O)Nc3cccc(-c4nncn4C(C)C)n3)cc2S1(=O)=O [Example 19, 5-fluoro-N-(6-(4-isopropyl-4H-1,2,4-triazol-3-yl)pyridin-2-yl)-2-(2-methoxyethyl)-2,3-dihydrobenzo[d]isothiazole-6-carboxamide 1,1-dioxide] |
| 0.01 to 0.1 | COCCN1Cc2cc(OC)c(C(=O)Nc3cccc(-c4nncn4C(C)C)n3)cc2S1(=O)=O [Example 20, N-(6-(4-isopropyl-4H-1,2,4-triazol-3-yl)pyridin-2-yl)-5-methoxy-2-(2-methoxyethyl)-2,3-dihydrobenzo[d]isothiazole-6-carboxamide 1,1-dioxide] |
| < 0.0015 | COCCN1Cc2cc(F)c(C(=O)Nc3cccc(-c4nnnn4[C@H](C)CO)n3)cc2S1(=O)=O [Example 21, (R)-5-fluoro-N-(6-(1-(1-hydroxypropan-2-yl)-1H-tetrazol-5-yl)pyridin-2-yl)-2-(2-methoxyethyl)-2,3-dihydrobenzo[d]isothiazole-6-carboxamide 1,1-dioxide] |
| < 0.0015 | COCCN1Cc2cc(OC)c(C(=O)Nc3cccc(-c4nnnn4[C@H](C)CO)n3)cc2S1(=O)=O [Example 22, (R)—N-(6-(1-(1-hydroxypropan-2-yl)-1H-tetrazol-5-yl)pyridin-2-yl)-5-methoxy-2-(2-methoxyethyl)-2,3-dihydrobenzo[d]isothiazole-6-carboxamide 1,1-dioxide] |

Second part, the compound before the results:

| SMILES | IC50 [µM] |
| --- | --- |
| CC(C)n1nnnc1-c1cccc(NC(=O)c2cc3c(cc2F)CN(C(C)(C)C)S3(=O)=O)n1 [Example 1, 2-(tert-butyl)-5-fluoro-N-(6-(1-isopropyl-1H-tetrazol-5-yl)pyridin-2-yl)-2,3-dihydrobenzo[d]isothiazole-6-carboxamide 1,1-dioxide] | 0.1 to 1 |
| C[C@H](CO)n1nnnc1-c1cccc(NC(=O)c2cc3c(cc2F)CN(C(C)(C)C)S3(=O)=O)n1 [Example 2, (R)-2-(tert-butyl)-5-fluoro-N-(6-(1-(1-hydroxypropan-2-yl)-1H-tetrazol-5-yl)pyridin-2-yl)-2,3-dihydrobenzo[d]isothiazole-6-carboxamide 1,1-dioxide] | 0.01 to 0.1 |
| CC(C)n1nnnc1-c1cccc(NC(=O)c2cc3c(cc2F)CCN(C(C)(C)C)S3(=O)=O)n1 [Example 4, 2-(tert-butyl)-6-fluoro-N-(6-(1-isopropyl-1H-tetrazol-5-yl)pyridin-2-yl)-3,4-dihydro-2H-benzo[e][1,2]thiazine-7-carboxamide 1,1-dioxide] | 0.01 to 0.1 |
| COc1cc2c(cc1C(=O)Nc1cccc(-c3nnnn3C(C)C)n1)S(=O)(=O)N(C(C)(C)C)C2 [Example 6, 2-(tert-butyl)-N-(6-(1-isopropyl-1H-tetrazol-5-yl)pyridin-2-yl)-5-methoxy-2,3-dihydrobenzo[d]isothiazole-6-carboxamide 1,1-dioxide] | > 1 |
| CC(C)N1Cc2cc(F)c(C(=O)Nc3cccc(-c4nncn4C(C)C)n3)cc2S1(=O)=O [Example 7, 5-fluoro-2-isopropyl-N-(6-(4-isopropyl-4H-1,2,4-triazol-3-yl)pyridin-2-yl)-2,3-dihydrobenzo[d]isothiazole-6-carboxamide 1,1-dioxide] | 0.01 to 0.1 |
| COc1cc2c(cc1C(=O)Nc1cccc(-c3nncn3C(C)C)n1)S(=O)(=O)N(C(C)C)C2 [Example 8, 2-isopropyl-N-(6-(4-isopropyl-4H-1,2,4-triazol-3-yl)pyridin-2-yl)-5-methoxy-2,3-dihydrobenzo[d]isothiazole-6-carboxamide 1,1-dioxide] | < 0.0015 |
| CC(C)N1Cc2cc(F)c(C(=O)Nc3cccc(-c4nnnn4[C@H](C)CO)n3)cc2S1(=O)=O [Example 9, (R)-5-fluoro-N-(6-(1-(1-hydroxypropan-2-yl)-1H-tetrazol-5-yl)pyridin-2-yl)-2-isopropyl-2,3-dihydrobenzo[d]isothiazole-6-carboxamide 1,1-dioxide] | 0.01 to 0.1 |
| COc1cc2c(cc1C(=O)Nc1cccc(-c3nnnn3[C@H](C)CO)n1)S(=O)(=O)N(C(C)C)C2 [Example 10, (R)—N-(6-(1-(1-hydroxypropan-2-yl)-1H-tetrazol-5-yl)pyridin-2-yl)-2-isopropyl-5-methoxy-2,3-dihydrobenzo[d]isothiazole-6-carboxamide 1,1-dioxide] | < 0.0015 |
| CC(C)N1Cc2cc(OCC(F)(F)F)c(C(=O)Nc3cccc(-c4nnnn4[C@H](C)CO)n3)cc2S1(=O)=O [Example 12, (R)—N-(6-(1-(1-hydroxypropan-2-yl)-1H-tetrazol-5-yl)pyridin-2-yl)-2-isopropyl-5-(2,2,2-trifluoroethoxy)-2,3-dihydrobenzo[d]isothiazole-6-carboxamide 1,1-dioxide] | 0.1 to 1 |
| CC(C)Oc1cc2c(cc1C(=O)Nc1cccc(-c3nnnn3[C@H](C)CO)n1)S(=O)(=O)N(C(C)C)C2 [Example 13, (R)—N-(6-(1-(1-hydroxypropan-2-yl)-1H-tetrazol-5-yl)pyridin-2-yl)-5-isopropoxy-2-isopropyl-2,3-dihydrobenzo[d]isothiazole-6-carboxamide 1,1-dioxide] | 0.01 to 0.1 |
